Columns and labels:
PC12 cells [1] = test: MDA measurement in glutamate-exposed cells; type: cell-based; conditions: GLU (10 mM) alone, 24 h
Description: MDA measurement: To prepare the solution, 350 μl of straight cell homogenate, 100 μl of 500 ppm BHT (butylated hydroxytoluene), and 550 μl of 10% TCA (trichloroacetic acid) were combined and boiled for 30 min. The tubes were cooled on ice and centrifuged for 10 min at 2500 rpm. Five hundred (500) μl of the supernatant were removed and 500 μl of TBA (thiobarbituric acid) were added. The tubes were boiled again for 30 min, and then cooled on ice. From this solution, 500 μl were removed, added to 1.0 ml of n-butanol, vortexed, and centrifuged for 5 min at 60 g to facilitate a phase separation. The top layer was then filtered through 0.45 μm filters and injected onto a 5 μm C18 column (250×4.6 mm) on a reverse phase HPLC system. The mobile phase consisted of 69.4% 5 mM sodium phosphate buffer (pH=7.0), 30% acetonitrile, and 0.6% THF (tetrahydrofuran). The excitation wavelength was 515 nm; the emission wavelength was 550 nm (Draper H. H. et al., Free Radic Biol Med., 15(4):353-63, 1993).
Cells were plated and grown for 24 hours, and then they were exposed to glutamate (10 mM) in the presence or absence of NAC amide (750 μM). Twenty-four hours later, the cells were harvested and malondialdehyde levels were measured. Values represent means.+−.SD. Statistically different values of *P<0.002 and **P<0.05 were determined, compared to control. ***P<0.05 compared to glutamate-treated group.

PC12 cells [2] = test: GSH measurement in cells (NPM/HPLC); type: cell-based; conditions: GLU (10 mM) alone
Description: Cells were seeded at a density of 80,000 cells/cm^2 on poly-D-lysine coated (0.05 mg/ml) 75 cm^2 flasks (5 ml/flask) for GSH measurement. […] After the incubation period, cells were removed from the cultures and homogenized in serine borate buffer (100 mM Tris-HCl, 10 mM boric acid, 5 mM L-serine, 1 mM DETAPAC, pH 7.4). Twenty (20) μl of the diluted cell homogenate were added to 230 μl of serine borate buffer and 750 μl of NPM (1 mM in acetonitrile). The resulting solutions were incubated at room temperature for 5 min. The reaction was stopped by the addition of 5 μl of 2N HCl. The samples were then filtered through a 0.2 μm Acrodisc filter and injected onto the HPLC system.
[…] Values represent means.+−.SD. Statistically different values of *P<0.05 were determined, compared to control. **P<0.001 compared to glutamate-treated group. ***P<0.05 compared to glutamate-treated group.

mouse = conditions: subcutaneous injection; cited from earlier work

| SMILES | MDA Levels (PC12 cells [1]) [nM/100 mg protein] | GSH Levels (PC12 cells [2]) [nM/mg protein] | toxicity relative to morphine (mouse) [times] |
| --- | --- | --- | --- |
| N[C@@H](CCC(=O)O)C(=O)O [GLU, glutamate, reference compound] | 247 ± 26 | 23 ± 4.2 |  |
| CN1CC[C@]23c4c5ccc(O)c4O[C@H]2C(=O)C=C[C@H]3[C@H]1C5 [Morphinone, morphinone] |  |  | 9 |
